Legend:
Assay type in all cases: in vivo
Tetranychus urticae = Tetranychus urticae - spray test OP-resistant; conditions: foliar, 144 h, French bean leaf disks, all instars, after 6 days
Protocol: Tetranychus urticae—Spray Test OP-Resistant
(§1) To produce a suitable preparation of active compound, 1 part by weight of active compound is mixed with the stated amount of solvents and is diluted with water, containing an emulsifier concentration of 1000 ppm, to the desired concentration. Further test concentrations are prepared by dilution with emulsifier containing water.
French bean (Phaseolus vulgaris) leaf disks infected with all instars of the two spotted spidermite (Tetranychus urticae), are sprayed with a preparation of the active ingredient of the desired concentration.
After 6 days mortality in % is determined. 100% means all spider mites have been killed and 0% means none of the spider mites have been killed.

Diabrotica balteata = Diabrotica balteata - spray test; conditions: 168 h, 160 μg/well, germinated wheat seeds, larvae, after 7 days, read-out: efficacy in %
In short: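 Wheat seeds germinated 1 day on agar were sprayed with compound diluted in water with 1000 ppm emulsifier, then infested with 10-20 Diabrotica balteata larvae. Efficacy in % scored after 7 days: 100% = seedlings grown as untreated, uninfected control; 0% = no seedlings grown.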

Nilaparvata lugens = Nilaparvata lugens - spray test 1; conditions: in Oryza sativa, 96 h, read-out: mortality in %, 500 g/ha, rice plants, after 4 days
In short: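 Rice plants (Oryza sativa) were sprayed with the compound preparation in water containing 1000 ppm emulsifier, then infested with brown planthoppers. Percent mortality scored after 4 days (100% = all killed, 0% = none).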

Nezara viridula = Nezara viridula - spray test 1; conditions: in Hordeum vulgare, 96 h, read-out: mortality in %
In short: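 Barley plants carrying southern green stink bug larvae were sprayed with compound diluted in water with 1000 ppm emulsifier. Mortality (%) was scored after 4 days.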

Aphis gossypii = Aphis gossypii - oral test; conditions: 120 h, read-out: mortality in %
In short: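 Mixed-population cotton aphids feed through parafilm on compound (acetone stock diluted in water) mixed with IPL41 insect medium containing sugar. Mortality (%) scored after 5 days.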

Phaedon cochleariae = Phaedon cochleariae - spray test; conditions: in Brassica rapa, foliar, 168 h, read-out: mortality in %
In short: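 Chinese cabbage leaf disks sprayed with compound diluted in water containing 1000 ppm emulsifier, then infested with mustard beetle larvae once dry. Mortality in % scored after 7 days (100% = all larvae killed, 0% = none).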

Myzus persicae [1] = test: Myzus persicae - oral test; conditions: 120 h, read-out: mortality in %
In short: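 Mixed-population green peach aphids fed through parafilm on compound diluted in water plus IPL41 insect medium (33%+15% sugar). Mortality (%) scored after 5 days, 100% meaning all aphids killed.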

[2] = system: Blattella germanica strain PAULINIA; test: Blattella germanica test (BLTTGE surface treatment & contact assay); conditions: 30 minutes exposure, 24 hours after contact, read-out: efficacy (mortality in percent); for mortality at 4 mg/m2: surface concentration 4 mg/m^2, glazed tile; for mortality at 20 mg/m2: surface concentration 20 mg/m^2, glazed tile
Protocol: Blattella germanica Test (BLTTGE Surface Treatment & Contact Assay)
(§2) Solvent: Aceton+2000 ppm Rapeseed oil methyl ester (RME)
In order to produce a sufficient, active ingredient containing solution it is necessary to solve the test-compound in an acetone/RME solvent mixture. This solution is pipetted onto a glazed tile and after evaporation of the acetone, adult animals of the species Blattella germanica strain PAULINIA are placed onto the dried surface. The exposure time is 30 minutes.
(§3) Mortality in percent (%) is determined 24 hours after contact to the treated surface. 100% mortality means that all test-insects are dead, whereas 0% means that not a single insect died.

Culex quinquefasciatus = test: Culex test (CULXFAS surface treatment & contact assay); conditions: 30 minutes exposure, 24 hours after contact, read-out: efficacy (mortality in percent); for mortality at 4 mg/m2: surface concentration 4 mg/m^2, glazed tile; for mortality at 20 mg/m2: surface concentration 20 mg/m^2, glazed tile
Protocol: Culex Test (CULXFAS Surface Treatment & Contact Assay)
Solvent: Acetone+2000 ppm rapeseed oil methyl ester (RME)
In order to produce a sufficient, active ingredient containing solution it is necessary to solve the test-compound in an acetone/RME solvent mixture. This solution is pipetted onto a glazed tile and after evaporation of the acetone, adult mosquitoes of the species Culex quinquefasciatus (Brown house mosquito) are placed onto the dried surface. The exposure time is 30 minutes.
as §3

[3] = system: Musca domestica strain WHO-N; test: Musca domestica test (MUSCDO surface treatment & contact assay); conditions: 30 minutes exposure, 24 hours after contact, read-out: efficacy (mortality in percent); for mortality at 4 mg/m2: surface concentration 4 mg/m^2, glazed tile; for mortality at 20 mg/m2: surface concentration 20 mg/m^2, glazed tile
Protocol: Musca domestica Test (MUSCDO Surface Treatment & Contact Assay)
as §2
In order to produce a sufficient, active ingredient containing solution it is necessary to solve the test-compound in an acetone/RME solvent mixture. This solution is pipetted onto a glazed tile and after evaporation of the acetone, adult flies of the species Musca domestica strain WHO-N are placed onto the dried surface. The exposure time is 30 minutes.
as §3

[4] = system: Aedes aegypti strain MONHEIM; test: Aedes test (AEDSAE surface treatment & contact assay); conditions: 30 minutes exposure, 24 hours after contact, read-out: efficacy (mortality in percent); for mortality at 4 mg/m2: surface concentration 4 mg/m^2, glazed tile; for mortality at 20 mg/m2: surface concentration 20 mg/m^2, glazed tile
Protocol: Aedes Test (AEDSAE Surface Treatment & Contact Assay)
Solvent: Aceton+2000 ppm rapeseed oil methyl ester (RME)
In order to produce a sufficient, active ingredient containing solution it is necessary to solve the test-compound in an acetone/RME solvent mixture. This solution is pipetted onto a glazed tile and after evaporation of the acetone, adult mosquitoes of the species Aedes aegypti strain MONHEIM are placed onto the dried surface. The exposure time is 30 minutes.
as §3

Spodoptera frugiperda = Spodoptera frugiperda - spray test; conditions: in Zea mays, 168 h, read-out: mortality in %
In short: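 Maize leaf sections sprayed with compound diluted in water with 1000 ppm emulsifier, then infested with larvae once dry. Mortality (%) scored after 7 days; 100% = all caterpillars killed.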

Meloidogyne incognita = Meloidogyne incognita - test; conditions: 336 h, salad seedlings in sand, after 14 days, read-out: nematicidal activity (percentage of gall formation)
Protocol: Meloidogyne incognita—Test
Solvent: 125.0 parts by weight of acetone
To produce a suitable preparation of active compound, 1 part by weight of active compound is mixed with the stated amount of solvent, and the concentrate is diluted with water to the desired concentration.
Vessels are filled with sand, a solution of the active ingredient, a suspension containing eggs and larvae of the southern root-knot nematode (Meloidogyne incognita) and salad seeds. The salad seeds germinate and the seedlings grow. Galls develop in the roots.
After 14 days the nematicidal activity is determined on the basis of the percentage of gall formation. 100% means no galls were found and 0% means the number of galls found on the roots of the treated plants was equal to that in untreated control plants.

Myzus persicae [5] = test: Myzus persicae - spray test; conditions: foliar, 120 h, Chinese cabbage leaf disks, all instars, after 5 days
Protocol: Myzus persicae—Spray Test
as §1
Chinese cabbage (Brassica pekinensis) leaf disks infected with all instars of the green peach aphid (Myzus persicae), are sprayed with a preparation of the active ingredient of the desired concentration.
After 5 days mortality in % is determined. 100% means all aphids have been killed and 0% means none of the aphids have been killed.

Structure (SMILES) | mortality at 500 g/ha (Tetranychus urticae) [%] | pest or weed control at 160 µg/disc, 160 µg/well (Diabrotica balteata) [%] | mortality at 500 g/ha (Nilaparvata lugens) [%] | mortality at 500 g/ha (Nezara viridula) [%] | mortality at 100 ppm (Aphis gossypii) [%] | mortality at 500 g/ha (Phaedon cochleariae) [%] | mortality at 20 ppm (Myzus persicae [1]) [%] | mortality at 4 mg/m2 [2] [%] | mortality at 20 mg/m2 [2] [%] | mortality at 4 mg/m2 (Culex quinquefasciatus) [%] | mortality at 20 mg/m2 (Culex quinquefasciatus) [%] | mortality at 4 mg/m2 [3] [%] | mortality at 20 mg/m2 [3] [%] | mortality at 4 mg/m2 [4] [%] | mortality at 20 mg/m2 [4] [%] | mortality at 500 g/ha (Spodoptera frugiperda) [%] | pest or weed control at 20 ppm (Meloidogyne incognita) [%] | mortality at 500 g/ha (Myzus persicae [5]) [%]
CC(c1ncnn1-c1ncc(F)cn1)N(CC1CC1)C(=O)c1cc(Cl)cc(C(F)(F)F)c1 (centres unmarked) [Compound I-81, 3-chloro-N-(cyclopropylmethyl)-N-[1-[2-(5-fluoropyrimidin-2-yl)-1,2,4-triazol-3-yl]ethyl]-5-(trifluoromethyl)benzamide] | 80 | 100 | 100 | 100 | 100 | 100 | 100 | 80 to 100 | 80 to 100 | 80 to 100 | 80 to 100 | 80 to 100 | 80 to 100 | 80 to 100 | 80 to 100 | 100 |  | 
CC(c1ncnn1-c1nccc(C(F)(F)F)n1)N(CC1CC1)C(=O)c1cc(Cl)cc(C(F)(F)F)c1 (centres unmarked) [Compound I-82] | 80 | 100 | 100 | 100 | 100 | 100 | 100 |  |  |  |  |  |  |  |  | 100 | 100 | 
CC(NC(=O)c1cc(Cl)cc(Br)c1)c1ncnn1-c1ncccn1 (centres unmarked) [Compound I-125, 3-bromo-5-chloro-N-[1-(2-pyrimidin-2-yl-1,2,4-triazol-3-yl)ethyl]benzamide] |  | 100 |  | 100 |  |  |  |  |  |  |  |  |  |  |  | 100 |  | 90
C[C@@H](c1ncnn1-c1ncccn1)N(CC(F)F)C(=O)c1cc(Cl)cc(C(F)(F)F)c1 [Compound I-127, 3-chloro-N-(2,2-difluoroethyl)-N-[(1S)-1-(2-pyrimidin-2-yl-1,2,4-triazol-3-yl)ethyl]-5-(trifluoromethyl)benzamide] |  | 100 |  | 100 |  |  |  |  |  |  |  |  |  |  |  | 100 |  | 100
CC(c1ncnn1-c1ncccn1)N(CC1CC1)C(=O)c1cc(Cl)cc(OC(F)(F)F)c1 (centres unmarked) [Compound I-37, 3-chloro-N-(cyclopropylmethyl)-N-[1-(2-pyrimidin-2-yl-1,2,4-triazol-3-yl)ethyl]-5-(trifluoromethoxy)benzamide] | 90 | 100 | 100 | 100 | 100 | 100 | 100 | 80 to 100 | 80 to 100 | 80 to 100 | 80 to 100 | 80 to 100 | 80 to 100 | 80 to 100 | 80 to 100 | 100 |  | 
CC(NC(=O)c1cc(Cl)cc(I)c1)c1ncnn1-c1ncccn1 (centres unmarked) [Compound I-126, 3-chloro-5-iodo-N-[1-(2-pyrimidin-2-yl-1,2,4-triazol-3-yl)ethyl]benzamide] |  | 100 |  | 100 |  |  |  |  |  |  |  |  |  |  |  | 100 |  | 90
CC(c1ncnn1-c1ccncn1)N(CC1CC1)C(=O)c1cc(Cl)cc(C(F)(F)F)c1 (centres unmarked) [Compound I-110] | 95 | 100 | 100 | 100 | 100 | 100 | 100 |  |  |  |  |  |  |  |  | 100 |  | 
C#CCN(C(=O)c1cc(Cl)cc(C(F)(F)F)c1)C(C)c1ncnn1-c1ncccn1 (centres unmarked) [Compound I-41, 3-chloro-N-prop-2-ynyl-N-[1-(2-pyrimidin-2-yl-1,2,4-triazol-3-yl)ethyl]-5-(trifluoromethyl)benzamide] | 90 | 100 | 100 | 100 | 100 | 100 | 100 |  |  |  |  |  |  |  |  | 100 |  | 
CCN(C(=O)c1cc(Cl)cc(C(F)(F)F)c1)C(C)c1ncnn1-c1ncccn1 (centres unmarked) [Compound I-97, 3-chloro-N-ethyl-N-[1-(2-pyrimidin-2-yl-1,2,4-triazol-3-yl)ethyl]-5-(trifluoromethyl)benzamide] | 80 | 100 | 100 | 100 | 100 | 100 | 100 |  |  |  |  |  |  |  |  | 100 |  | 
